From ChEMBL document CHEMBL2203136, “Synthesis, characterization, biological evaluation and QSAR studies of 11-p-substituted phenyl-12-phenyl-11a,12-dihydro-11H-indeno[2,1-c][1,5]benzothiazepines as potential antimicrobial agents” (Eur J Med Chem, 2012)
≈ marks a conversion by molar mass, not a printed value. Calls of active or inactive are those of the source. The calls are words filed in the database; no cut-off is given here.

Tests used:
Escherichia coli [1] = experiment: Antibacterial activity against Escherichia coli MTCC 42 after 24 hrs by serial dilution method; format: functional; details: for MIC: Escherichia coli, MTCC 42, 24 h
[2] = Octanol-water partition coefficient, log P of the compound; format: physicochemical
Candida albicans [3] = experiment: Antifungal activity against Candida albicans MTCC 183 after 72 hrs by serial dilution method; format: functional; details: for MIC: Candida albicans, MTCC 183, 72 h
Aspergillus fumigatus [4] = experiment: Antifungal activity against Aspergillus fumigatus MTCC 2550 after 72 hrs by serial dilution method; format: functional; details: for MIC: Aspergillus fumigatus, MTCC 2550, 72 h
Bacillus subtilis [5] = experiment: Antibacterial activity against Bacillus subtilis MTCC 441 after 24 hrs by serial dilution method relative to 11,12-Diphenyl-11a,12-dihydro-11H-indeno[2,1-c][1,5]benzothiazepine; format: functional
Bacillus subtilis [6] = experiment: microbe, parasite or virus in culture; details: MTCC 441, 24 h
Staphylococcus aureus [7] = experiment: Antibacterial activity against Staphylococcus aureus MTCC 7443 after 24 hrs by serial dilution method relative to 11,12-Diphenyl-11a,12-dihydro-11H-indeno[2,1-c][1,5]benzothiazepine; format: functional
Escherichia coli [8] = experiment: Antibacterial activity against Escherichia coli MTCC 42 after 24 hrs by serial dilution method relative to 11,12-Diphenyl-11a,12-dihydro-11H-indeno[2,1-c][1,5]benzothiazepine; format: functional
Staphylococcus aureus [9] = experiment: Antibacterial activity against Staphylococcus aureus MTCC 7443 after 24 hrs by serial dilution method; format: functional; details: for MIC: Staphylococcus aureus, MTCC 7443, 24 h
Bacillus subtilis [10] = test system: Bacillus subtilis
Pseudomonas aeruginosa [11] = experiment: Antibacterial activity against Pseudomonas aeruginosa MTCC 7952 after 24 hrs by serial dilution method; format: functional; details: for MIC: Pseudomonas aeruginosa, MTCC 7952, 24 h
Pseudomonas aeruginosa [12] = experiment: Antibacterial activity against Pseudomonas aeruginosa MTCC 7952 after 24 hrs by serial dilution method relative to 11,12-Diphenyl-11a,12-dihydro-11H-indeno[2,1-c][1,5]benzothiazepine; format: functional
Candida albicans [13] = experiment: Antifungal activity against Candida albicans MTCC 183 after 72 hrs by serial dilution method relative to 11,12-Diphenyl-11a,12-dihydro-11H-indeno[2,1-c][1,5]benzothiazepine; format: functional
Aspergillus fumigatus [14] = experiment: Antifungal activity against Aspergillus fumigatus MTCC 2550 after 72 hrs by serial dilution method relative to 11,12-Diphenyl-11a,12-dihydro-11H-indeno[2,1-c][1,5]benzothiazepine; format: functional

| Structure (SMILES) | -logMIC (Escherichia coli [1]) | MIC (Escherichia coli [1]) [µM] | logP [2] | Activity (Bacillus subtilis [5]) [%] | MIC (Bacillus subtilis [6]) [µM] | Activity (Staphylococcus aureus [7]) [%] | Activity (Escherichia coli [8]) [%] | -logMIC (Staphylococcus aureus [9]) | MIC (Staphylococcus aureus [9]) [µM] | -logMIC (Bacillus subtilis [10]) | MIC (Pseudomonas aeruginosa [11]) [µM] | -logMIC (Candida albicans [3]) | MIC (Candida albicans [3]) [µM] | Activity (Pseudomonas aeruginosa [12]) [%] | -logMIC (Aspergillus fumigatus [4]) | MIC (Aspergillus fumigatus [4]) [µM] | Activity (Candida albicans [13]) [%] | Activity (Aspergillus fumigatus [14]) [%] | -logMIC (Pseudomonas aeruginosa [11]) | other results |
| --- | --- | --- | --- | --- | --- | --- | --- | --- | --- | --- | --- | --- | --- | --- | --- | --- | --- | --- | --- | --- |
| Cc1ccc(C2Sc3ccccc3N=C3c4ccccc4C(c4ccccc4)C32)cc1 (stereo not given) | 0.92 | 120 (≈ 50 µg/mL) | 7.43 | 3.39 | 59.8 (≈ 25 µg/mL) | -93.37 | 3.38 | 0.92 | 120 (≈ 50 µg/mL) | 1.22 |  |  |  |  |  |  |  |  |  | Activity (Candida albicans [3]): inactive; Activity (Aspergillus fumigatus [4]): inactive; Activity (Pseudomonas aeruginosa [11]): inactive |
| CN[C@@H]1[C@H](O[C@H]2[C@H](O[C@H]3[C@H](O)[C@@H](O)[C@H](N=C(N)N)[C@@H](O)[C@@H]3N=C(N)N)O[C@@H](C)[C@]2(O)C=O)O[C@@H](CO)[C@H](O)[C@H]1O [STREPTOMYCIN] |  | 5.3 (≈ 3.08 µg/mL) |  |  | 10.7 (≈ 6.22 µg/mL) |  |  |  | 10.7 (≈ 6.22 µg/mL) |  | 2.6 (≈ 1.51 µg/mL) |  |  |  |  |  |  |  |  |  |
| Cc1ccc(C2Sc3cc(Cl)ccc3N=C3c4ccccc4C(c4ccccc4)C32)cc1 (stereo not given) | 1.86 | 13.8 (≈ 6.24 µg/mL) | 7.95 | 55.41 | 27.6 (≈ 12.5 µg/mL) | 88.85 | 88.86 | 2.16 | 6.9 (≈ 3.12 µg/mL) | 1.56 | 27.6 (≈ 12.5 µg/mL) | 1.56 | 27.6 (≈ 12.5 µg/mL) | 55.41 | 1.56 | 27.6 (≈ 12.5 µg/mL) | 55.41 | 77.72 | 1.56 |  |
| COc1ccc(C2Sc3ccccc3N=C3c4ccccc4C(c4ccccc4)C32)cc1 (stereo not given) | 0.94 | 115 (≈ 50 µg/mL) | 7.95 | -86.26 | 115 (≈ 50 µg/mL) |  | 6.94 |  |  | 0.94 |  | 0.94 | 115 (≈ 50 µg/mL) |  | 1.24 | 57.6 (≈ 25 µg/mL) | -86.26 | 53.51 |  | Activity (Staphylococcus aureus [9]): inactive; Activity (Pseudomonas aeruginosa [11]): inactive |
| CC1(C)S[C@@H]2[C@H](NC(=O)Cc3ccccc3)C(=O)N2[C@H]1C(=O)O [PENICILLIN G] |  | 37.4 (≈ 12.5 µg/mL) |  |  | 4.6 (≈ 1.54 µg/mL) |  |  |  | 4.6 (≈ 1.54 µg/mL) |  | 18.7 (≈ 6.25 µg/mL) |  |  |  |  |  |  |  |  |  |
| c1ccc(C2Sc3ccccc3N=C3c4ccccc4C(c4ccccc4)C32)cc1 (stereo not given) | 0.91 | 124 (≈ 50 µg/mL) | 6.96 |  | 61.9 (≈ 25 µg/mL) |  |  | 1.21 | 61.9 (≈ 25 µg/mL) | 1.21 | 61.9 (≈ 25 µg/mL) | 1.21 | 61.9 (≈ 25 µg/mL) |  | 0.91 | 124 (≈ 50 µg/mL) |  |  | 1.21 |  |
| Cc1ccc2c(c1)SC(c1ccc(Cl)cc1)C1C(=N2)c2ccccc2C1c1ccccc1 (stereo not given) | 1.56 | 27.6 (≈ 12.5 µg/mL) | 7.95 | -78.67 | 111 (≈ 50 µg/mL) |  | 77.72 |  |  | 0.96 | 27.6 (≈ 12.5 µg/mL) | 1.26 | 55.3 (≈ 25 µg/mL) | 55.41 | 1.26 | 55.3 (≈ 25 µg/mL) | 10.66 | 55.36 | 1.56 | Activity (Staphylococcus aureus [9]): inactive |
| COc1ccc(C2Sc3cc(C)ccc3N=C3c4ccccc4C(c4ccccc4)C32)cc1 (stereo not given) | 0.95 | 112 (≈ 50 µg/mL) | 7.18 | 9.85 | 55.8 (≈ 25 µg/mL) | 54.92 | 9.84 | 1.55 | 27.9 (≈ 12.5 µg/mL) | 1.25 | 55.8 (≈ 25 µg/mL) | 0.95 | 112 (≈ 50 µg/mL) | 9.85 | 0.95 | 112 (≈ 50 µg/mL) | -80.45 | 9.84 | 1.25 |  |
| Clc1ccc(C2Sc3ccccc3N=C3c4ccccc4C(c4ccccc4)C32)cc1 (stereo not given) | 1.24 | 57 (≈ 25 µg/mL) | 7.48 | 88.52 | 7.1 (≈ 3.11 µg/mL) | 53.95 | 53.99 | 1.55 | 28.5 (≈ 12.5 µg/mL) | 2.15 | 114 (≈ 50 µg/mL) | 0.94 | 114 (≈ 50 µg/mL) | -84.32 | 1.24 | 57 (≈ 25 µg/mL) | -84.32 | 53.99 | 0.94 |  |
| COc1ccc(C2Sc3cc(Cl)ccc3N=C3c4ccccc4C(c4ccccc4)C32)cc1 (stereo not given) | 1.57 | 26.7 (≈ 12.5 µg/mL) | 7.23 | 13.73 | 53.4 (≈ 25 µg/mL) | 78.51 | 78.45 | 1.88 | 13.3 (≈ 6.22 µg/mL) | 1.27 | 6.6 (≈ 3.09 µg/mL) | 1.88 | 13.3 (≈ 6.22 µg/mL) | 89.33 | 1.57 | 26.7 (≈ 12.5 µg/mL) | 78.51 | 78.45 | 2.18 |  |
| COc1ccc2c(c1)SC(c1ccccc1)C1C(=N2)c2ccccc2C1c1ccccc1 (stereo not given) | 1.54 | 28.8 (≈ 12.5 µg/mL) | 6.71 | 6.94 | 57.6 (≈ 25 µg/mL) | 76.73 | 76.75 | 1.84 | 14.4 (≈ 6.24 µg/mL) | 1.24 | 57.6 (≈ 25 µg/mL) | 0.94 | 115 (≈ 50 µg/mL) | 6.94 | 1.24 | 57.6 (≈ 25 µg/mL) | -86.26 | 53.51 | 1.24 |  |
| Cc1ccc(C2Sc3cc(C)ccc3N=C3c4ccccc4C(c4ccccc4)C32)cc1 (stereo not given) | 1.24 | 57.9 (≈ 25 µg/mL) | 7.9 | 53.31 | 28.9 (≈ 12.5 µg/mL) | 53.31 | 53.26 | 1.54 | 28.9 (≈ 12.5 µg/mL) | 1.54 | 116 (≈ 50 µg/mL) | 0.94 | 116 (≈ 50 µg/mL) | -87.07 | 0.94 | 116 (≈ 50 µg/mL) | -87.1 | 6.53 | 0.94 |  |
| COc1ccc2c(c1)SC(c1ccc(C)cc1)C1C(=N2)c2ccccc2C1c1ccccc1 (stereo not given) | 1.55 | 27.9 (≈ 12.5 µg/mL) | 7.18 | -80.45 | 112 (≈ 50 µg/mL) | 77.54 | 77.48 | 1.86 | 13.9 (≈ 6.22 µg/mL) | 0.95 | 6.9 (≈ 3.09 µg/mL) | 1.55 | 27.9 (≈ 12.5 µg/mL) | 88.85 | 1.25 | 55.8 (≈ 25 µg/mL) | 54.92 | 54.96 | 2.16 |  |
| Cc1ccc2c(c1)SC(c1ccccc1)C1C(=N2)c2ccccc2C1c1ccccc1 (stereo not given) |  |  | 7.43 | -93.37 | 120 (≈ 50 µg/mL) | -93.37 |  | 0.92 | 120 (≈ 50 µg/mL) | 0.92 | 29.9 (≈ 12.5 µg/mL) | 1.22 | 59.8 (≈ 25 µg/mL) | 51.69 | 1.22 | 59.8 (≈ 25 µg/mL) | 3.39 | 51.73 | 1.52 |  |
| COc1ccc2c(c1)SC(c1ccc(Cl)cc1)C1C(=N2)c2ccccc2C1c1ccccc1 (stereo not given) | 1.57 | 26.7 (≈ 12.5 µg/mL) | 7.23 | 56.86 | 26.7 (≈ 12.5 µg/mL) | 13.73 | 78.45 | 1.27 | 53.4 (≈ 25 µg/mL) | 1.57 | 6.9 (≈ 3.23 µg/mL) | 2.16 | 6.9 (≈ 3.23 µg/mL) | 88.85 | 1.57 | 26.7 (≈ 12.5 µg/mL) | 88.85 | 78.45 | 2.16 |  |
| OC(Cn1cncn1)(Cn1cncn1)c1ccc(F)cc1F [FLUCONAZOLE] |  |  |  |  |  |  |  |  |  |  |  |  | 10.1 (≈ 3.09 µg/mL) |  |  | 10.1 (≈ 3.09 µg/mL) |  |  |  |  |
| COc1ccc(C2Sc3cc(OC)ccc3N=C3c4ccccc4C(c4ccccc4)C32)cc1 (stereo not given) | 1.57 | 26.9 (≈ 12.5 µg/mL) | 6.46 | 12.92 | 53.9 (≈ 25 µg/mL) | 89.17 | 78.28 | 2.17 | 6.7 (≈ 3.11 µg/mL) | 1.27 | 108 (≈ 50 µg/mL) | 1.87 | 13.4 (≈ 6.21 µg/mL) | -74.15 | 1.87 | 13.4 (≈ 6.21 µg/mL) | 78.35 | 89.18 | 0.97 |  |
